Results taken from ChEMBL document CHEMBL1130569, “pH Dependence of the rate of DNA alkylation for (+)-duocarmycin SA and (+)-CCBI-TMI” (Bioorg Med Chem Lett, 1997).
Where “and” joins values, the source holds several entries; their conditions need not be identical. Equal values may be shown once.

How the values were obtained:
[1] = Compound was evaluated for first-order rate constant for acid-catalyzed solvolysis at pH 7.6; format: ADME
[2] = Half-life period for acid-catalyzed solvolysis, was determined at pH 3; format: ADME
Nucleic Acid [3] = assay: Compound was evaluated for relative rate constant for alkylation of the single high affinity site in w794 DNA at the 7.6 pH points at 25 degrees Centigrade.; format: nucleic-acid assay
Nucleic Acid [4] = assay: Compound was evaluated for relative rate constant for alkylation of the single high affinity site in w794 DNA at pH 7.5 using 10 mM Tris, 1 mM EDTA buffers; format: nucleic-acid assay
Nucleic Acid [5] = assay: Compound was evaluated for pseudo first-order rate constant for alkylation of the single high affinity site in w794 DNA at the 7.6 pH points at 25 degrees Centigrade.; format: nucleic-acid assay
Nucleic Acid [6] = assay: Compound was evaluated for relative rate constant for alkylation of the single high affinity site in w794 DNA at pH 7.5 using 10 mM Tris buffers.; format: nucleic-acid assay
Nucleic Acid [7] = assay: Compound was evaluated for relative rate constant for alkylation of the single high affinity site in w794 DNA at pH 7.5.; format: nucleic-acid assay
Nucleic Acid [8] = assay: Compound was evaluated for pseudo first-order rate constant for alkylation of the single high affinity site in w794 DNA at the 8.0 pH points at 25 degrees Centigrade.; format: nucleic-acid assay
Nucleic Acid [9] = assay: Compound was evaluated for relative rate constant for alkylation of the single high affinity site in w794 DNA at pH 7.5 10 mM NaH2PO4-Na2HPO4, 1 mM EDTA buffers.; format: nucleic-acid assay
Nucleic Acid [10] = assay: Compound was evaluated for relative rate constant for alkylation of the single high affinity site in w794 DNA at the 6.1 pH points at 25 degrees Centigrade.; format: nucleic-acid assay
Nucleic Acid [11] = assay: Compound was evaluated for pseudo first-order rate constant for alkylation of the single high affinity site in w794 DNA at the 6.1 pH points at 25 degrees Centigrade.; format: nucleic-acid assay
Nucleic Acid [12] = assay: Compound was evaluated for pseudo first-order rate constant for alkylation of the single high affinity site in w794 DNA at the 6.8 pH points at 25 degrees Centigrade.; format: nucleic-acid assay
Nucleic Acid [13] = assay: Compound was evaluated for relative rate constant for alkylation of the single high affinity site in w794 DNA at the 6.8 pH points at 25 degrees Centigrade.; format: nucleic-acid assay
Nucleic Acid [14] = assay: Compound was evaluated for relative rate constant for alkylation of the single high affinity site in w794 DNA at 10 mM NaH2PO4-Na2HPO4 buffers.; format: nucleic-acid assay
Nucleic Acid [15] = assay: Compound was evaluated for relative rate constant for alkylation of the single high affinity site in w794 DNA at the 8.0 pH points at 25 degrees Centigrade.; format: nucleic-acid assay
Nucleic Acid [16] = assay: Compound was evaluated for relative rate constant for alkylation of the single high affinity site in w794 DNA at the 6.6 pH points at 25 degrees Centigrade.; format: nucleic-acid assay
Nucleic Acid [17] = assay: Compound was evaluated for relative rate constant for alkylation of the single high affinity site in w794 DNA at the 6.0 pH points at 25 degrees Centigrade.; format: nucleic-acid assay
Nucleic Acid [18] = assay: Compound was evaluated for relative rate constant for alkylation of the single high affinity site in w794 DNA at the 7.1 pH points at 25 degrees Centigrade.; format: nucleic-acid assay
Nucleic Acid [19] = assay: Compound was evaluated for relative rate constant for alkylation of the single high affinity site in w794 DNA at the 8.1 pH points at 25 degrees Centigrade.; format: nucleic-acid assay
[20] = Half-life period for DNA alkylation, was determined; format: ADME

In the case of `CC(C)(C)OC(=O)N1C[C@H]2C[C@@]23C1=CC(=O)c1ccccc13`, the k [1] is reported as 1.45e-06 s⁻¹.
`CC(C)(C)OC(=O)N1C[C@H]2C[C@@]23C1=CC(=O)c1ccc(C#N)cc13` gave a k [1] of 9.9e-07 s⁻¹.
Compound `COC(=O)c1cc2c([nH]1)C(=O)C=C1N(C(=O)OC(C)(C)C)C[C@H]3C[C@]123` has a k [1] of 1.08e-06 s⁻¹ and a T1/2 [2] of 177 h.
`COc1cc2cc(C(=O)N3C[C@H]4C[C@@]45C3=CC(=O)c3ccc(C#N)cc35)[nH]c2c(OC)c1OC` gave a k [1] of 2.5e-11 s⁻¹, a Krel (Nucleic Acid [3]) of 1.2 and a Krel (Nucleic Acid [4]) of 1.51. The k obs (Nucleic Acid [5]) was 0.000336 s⁻¹, the Krel (Nucleic Acid [6]) was 1.74 and the Krel (Nucleic Acid [7]) was 2.5. For the same compound, the k obs (Nucleic Acid [8]) was 0.000278 s⁻¹, the Krel (Nucleic Acid [9]) was 1 and the Krel (Nucleic Acid [10]) was 2.55. For the same compound, the k obs (Nucleic Acid [11]) was 0.000706 s⁻¹, the k obs (Nucleic Acid [12]) was 0.000417 s⁻¹ and the Krel (Nucleic Acid [13]) was 1.5. The Krel (Nucleic Acid [14]) was 1.05 and the Krel (Nucleic Acid [15]) was 1.
Compound `COc1ccc2c(c1)[C@@]13C[C@@H]1CN(C(=O)OC(C)(C)C)C3=CC2=O` has a k [1] of 1.75e-06 s⁻¹.
`N#Cc1ccc2c(c1)[C@@]13C[C@@H]1CN(C(=O)c1cc4cc(NC(=O)c5cc6ccccc6[nH]5)ccc4[nH]1)C3=CC2=O` gave a Krel (Nucleic Acid [7]) of 2.5.
`COc1cc2cc(C(=O)N3C[C@H]4C[C@@]45C3=CC(=O)c3ccccc35)[nH]c2c(OC)c1OC` gave a Krel (Nucleic Acid [7]) of 1.
Compound `COc1ccc2c(c1)[C@@]13C[C@@H]1CN(C(=O)c1cc4cc(OC)c(OC)c(OC)c4[nH]1)C3=CC2=O` has a Krel (Nucleic Acid [7]) of 1.9.
For `O=C(Nc1ccc2[nH]c(C(=O)N3C[C@H]4C[C@@]45C3=CC(=O)c3ccccc35)cc2c1)c1cc2ccccc2[nH]1`, the Krel (Nucleic Acid [7]) was 1.
`COC(=O)c1cc2c([nH]1)C(=O)C=C1N(C(=O)c3cc4cc(OC)c(OC)c(OC)c4[nH]3)C[C@H]3C[C@]123` [DUOCARMYCIN] showed a k [1] of 2.7e-11 s⁻¹, a Krel (Nucleic Acid [3]) of 1.05 and a k obs (Nucleic Acid [5]) of 0.000169 s⁻¹. The Krel (Nucleic Acid [16]) was 1.32, the Krel (Nucleic Acid [7]) was 0.9 and the k obs (Nucleic Acid [8]) was 0.000158 s⁻¹ and 0.00015 s⁻¹. For the same compound, the Krel (Nucleic Acid [17]) was 1.89, the k obs (Nucleic Acid [11]) was 0.000283 s⁻¹ and the k obs (Nucleic Acid [12]) was 0.000199 s⁻¹. It also gave a Krel (Nucleic Acid [18]) of 1.12, a Krel (Nucleic Acid [19]) of 1 and a T1/2 [20] of 1.2 years.
Compound `COc1ccc2c(c1)[C@@]13C[C@@H]1CN(C(=O)c1cc4cc(NC(=O)c5cc6ccccc6[nH]5)ccc4[nH]1)C3=CC2=O` has a Krel (Nucleic Acid [7]) of 1.4.
